Paper PMC9069370, “Integrated Design of a Membrane‐Lytic Peptide‐Based Intravenous Nanotherapeutic Suppresses Triple‐Negative Breast Cancer” (Advanced Science, 2022)
Peptide text beside a SMILES is read from it.

Legend:
HMLER‐shEcad = assay: cells; format: cell-based, human; conditions: 72 h
Text: (§1) […], and MCF-10A cells were maintained in MEGM with supplements and growth factors bovine pituitary extract, hydrocortisone, human epidermal growth factor, insulin, and gentamicin/amphotericin-B.

MCF‐10A = assay: cells; format: cell-based, human; conditions: 72 h
Text: as §1

HMLER = assay: cells; format: cell-based, human; conditions: 72 h
Text: as §1

[1] = ANTS/DPX liposome leakage assay; conditions: 0.5 mM vesicles, peptide 0-20 µM, 3 h incubation, lipid per peptide; for Peptide Concentration-induced 50 % ANTS/DPX leakage at pH 4.8 (L/P), 3POPC/1POPG Vesicle / Peptide Concentration-induced 50 % ANTS/DPX leakage at pH 4.8 (L/P), POPC Vesicle: HCl-adjusted PBS 1X pH 4.8; for Peptide Concentration-induced 50 % ANTS/DPX leakage at pH 7.4 (L/P), 3POPC/1POPG Vesicle / Peptide Concentration-induced 50 % ANTS/DPX leakage at pH 7.4 (L/P), POPC Vesicle: PBS 1X pH 7.4, high ratio = more potent
Procedure: Vesicle preparation: 5 mM ANTS and 12.5 mM DPX were entrapped in 0.1 µm diameter extruded vesicles (either POPC or POPC/POPG at a ratio of 3:1) with lipids. Gel filtration chromatography of Sephadex G‐100 was used to remove external free ANTS/DPX from LUVs with entrapped contents. LUVs were diluted to 0.5 mM and used to measure the leakage activity by the addition of aliquots of ACPs. Leakage was measured after 3 h incubation. 10% Triton was used as the positive control to measure the maximum leakage of the vesicle. Fluorescence emission spectra were recorded using excitation and emission wavelength of 350 and 510 nm for ANTS/DPX using a BioTek Synergy H1 Hybrid Multi‐Mode Reader.
Peptide Concentration-induced Peptide Concentration-induced
Name Sequence† 50 % ANTS/DPX leakage 50 % ANTS/DPX leakage at pH 7.4 (L/P) at pH 4.8 (L/P)
POPC Vesicle 3POPC/1POPG Vesicle POPC Vesicle 3POPC/1POPG Vesicle […]
Extended Data Table 4 | Peptide concentration-induced 50 % ANTS/DPX liposome leakage. 0.5 mM POPC and 3POPC/1POPG vesicles were fixed and incubated with titrated peptide concentration (0, 0.02, […]
hydrochloric acid-adjusted phoshate buffered saline (1X, pH 4.8). The values are shown as lipid per

[2] = Tryptophan fluorescent binding assay; conditions: tryptophan fluorescence; 50 µM peptide, lipid titrated 0-5000 µM; phosphate buffered saline 1X, pH 7.4; values as lipid per peptide
Procedure: 50 µM ACP peptides and varied concentrations (concentrations: 0, 25, 50, 100, 150, 200, 250, 500, 1250, and 2500 µM) of POPC or POPC:POPG (3:1 ratio) large unilamellar vesicles were prepared in 10 mM phosphate buffer (pH 7.0). The solutions were measured after 1 h of incubation. Excitation was fixed at 280 nm (slit 9 nm) and emission was collected from 300 to 450 nm (slit 9 nm). The spectra were recorded using Cytation 5 Cell Imaging Multi‐Mode Reader from BioTek and were averaged by three scans.
Lipid Concentration-induced
Name Sequence† 50% Peptide Binding (L/P)
Extended Data Table 3 | Tryptophan binding assay. […]
peptide binding onto liposome. 50 µM peptides were fixed and incubated with titrated lipid (POPC vesicle […]
phosphate buffered saline (1X, pH 7.4). The lipid concentration that causes 50 % peptide binding was determined using tryptophan fluorescent binding assay and the values are shown as lipid per peptide.

HEK293T = assay: cells; format: cell-based, human; conditions: 72 h
U2OS = format: cell-based, human; conditions: 72 h

Compound | IC50 (HMLER‐shEcad) | IC50 (MCF‐10A) | IC50 (HMLER) | Peptide Concentration-induced 50 % ANTS/DPX leakage at pH 4.8 (L/P), 3POPC/1POPG Vesicle [1] | Peptide Concentration-induced 50 % ANTS/DPX leakage at pH 4.8 (L/P), POPC Vesicle [1] | Peptide Concentration-induced 50 % ANTS/DPX leakage at pH 7.4 (L/P), 3POPC/1POPG Vesicle [1] | Peptide Concentration-induced 50 % ANTS/DPX leakage at pH 7.4 (L/P), POPC Vesicle [1] | Lipid Concentration-induced 50% Peptide Binding (L/P), 3POPC/1POPG Vesicle [2] | Lipid Concentration-induced 50% Peptide Binding (L/P), POPC Vesicle [2] | IC50 (HEK293T) | IC50 (U2OS)
CC(C)C[C@H](NC(=O)CN)C(=O)N[C@@H](CC(C)C)C(=O)N[C@@H](CCCCN)C(=O)N[C@@H](CC(C)C)C(=O)N[C@@H](CC(C)C)C(=O)N[C@@H](Cc1c[nH]cn1)C(=O)N[C@@H](CC(C)C)C(=O)N[C@@H](CC(C)C)C(=O)N[C@@H](CC(C)C)C(=O)N[C@@H](CCC(=O)O)C(=O)N[C@@H](C)C(=O)N[C@@H](C)C(=O)NCC(=O)N[C@@H](Cc1c[nH]c2ccccc12)C(N)=O [KHE] (H-GLLKLLHLLLEAAGW-NH2) | 2.92 ± 0.17 µM | 20.9 ± 5.87 µM | 3.7 ± 0.14 µM | 156 L/P | 183 L/P | 188 L/P | 981 L/P | 0.71 L/P | 0.88 L/P | 26 ± 2.83 µM | 53 ± 2.83 µM
CC(C)C[C@H](NC(=O)CN)C(=O)N[C@@H](CC(C)C)C(=O)N[C@@H](CCCCN)C(=O)N[C@@H](CC(C)C)C(=O)N[C@@H](CC(C)C)C(=O)N[C@@H](CCCCN)C(=O)N[C@@H](CC(C)C)C(=O)N[C@@H](CC(C)C)C(=O)N[C@@H](CC(C)C)C(=O)N[C@@H](CCCCN)C(=O)N[C@@H](C)C(=O)N[C@@H](C)C(=O)NCC(=O)N[C@@H](Cc1c[nH]c2ccccc12)C(N)=O [KKK] (H-GLLKLLKLLLKAAGW-NH2) | 1.35 ± 0.4 µM | 1.37 ± 0.24 µM | 1.57 ± 0.24 µM | 81 L/P | 156 L/P | 115 L/P | 1369 L/P | 1.70 L/P | 1.25 L/P | 3.7 ± 0.14 µM | 9.65 ± 1.2 µM
CC(C)C[C@H](NC(=O)CN)C(=O)N[C@@H](CC(C)C)C(=O)N[C@@H](CC(=O)O)C(=O)N[C@@H](CC(C)C)C(=O)N[C@@H](CC(C)C)C(=O)N[C@@H](Cc1c[nH]cn1)C(=O)N[C@@H](CC(C)C)C(=O)N[C@@H](CC(C)C)C(=O)N[C@@H](CC(C)C)C(=O)N[C@@H](Cc1c[nH]cn1)C(=O)N[C@@H](C)C(=O)N[C@@H](C)C(=O)NCC(=O)N[C@@H](Cc1c[nH]c2ccccc12)C(N)=O [DHH] (H-GLLDLLHLLLHAAGW-NH2) | 11.9 ± 0.14 µM | > 200 µM | 21.4 ± 2.47 µM | 98 L/P | 106 L/P | 692 L/P | 684 L/P | 0.28 L/P | 0.67 L/P | 6.4 ± 0.42 µM | 55.9 ± 18.9 µM
CC(C)C[C@H](NC(=O)CN)C(=O)N[C@@H](CC(C)C)C(=O)N[C@@H](CC(=O)O)C(=O)N[C@@H](CC(C)C)C(=O)N[C@@H](CC(C)C)C(=O)N[C@@H](CCCCN)C(=O)N[C@@H](CC(C)C)C(=O)N[C@@H](CC(C)C)C(=O)N[C@@H](CC(C)C)C(=O)N[C@@H](CCC(=O)O)C(=O)N[C@@H](C)C(=O)N[C@@H](C)C(=O)NCC(=O)N[C@@H](Cc1c[nH]c2ccccc12)C(N)=O [DKE] (H-GLLDLLKLLLEAAGW-NH2) | 1.57 ± 0.33 µM | 4.75 ± 0.49 µM | 2.1 µM | 469 L/P | 21 L/P | 411 L/P | 747 L/P | 0.46 L/P | 0.56 L/P | 7.8 ± 1.41 µM | 9.93 ± 0.25 µM
